Measurements published in patent publication US12171756B2, “NLRP3 modulators” (Innate Tumor Immunity, Inc., priority 2017, dated 2024).

Tests used:
[1] = system: IL-1β production in PMA-differentiated THP-1 cells; experiment: Measurement of IL-1β production in PMA-differentiated THP-1 cells (ELISA, 4 hours); type: cell-based, human; details: Homo sapiens, THP-1, human IL-1β production, assayed using one or more of the described procedures, read-out: NLRP3 hIL1B IC50
Outline: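 THP-1 cells differentiated with PMA (10 μg/ml, 24 h), replated at 1×10^6 cells/ml in RPMI with 2% FBS and exposed to compounds (e.g. 0.1–100 μM, 1% DMSO final) for 4 hours. IL-1β in cell-free supernatant quantified by ELISA against vehicle control.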

human TLR7 = molecular target: T1, human TLR7 (Homo sapiens, UniProt Q9NYK1); experiment: In vitro human TLR7 binding reporter assay (HEK-Blue, NF-kB/AP1-inducible SEAP); type: cell-based; details: HEK-Blue human TLR7 SEAP reporter cells; activity range classes; read-out: TLR7 Agonist EC50
T1 construct: host or cells: human HEK-Blue cells (HEK293-derived) co-expressing TLR7 and an NF-kB/AP1-inducible SEAP reporter
T1 sequence (Q9NYK1 27-1049): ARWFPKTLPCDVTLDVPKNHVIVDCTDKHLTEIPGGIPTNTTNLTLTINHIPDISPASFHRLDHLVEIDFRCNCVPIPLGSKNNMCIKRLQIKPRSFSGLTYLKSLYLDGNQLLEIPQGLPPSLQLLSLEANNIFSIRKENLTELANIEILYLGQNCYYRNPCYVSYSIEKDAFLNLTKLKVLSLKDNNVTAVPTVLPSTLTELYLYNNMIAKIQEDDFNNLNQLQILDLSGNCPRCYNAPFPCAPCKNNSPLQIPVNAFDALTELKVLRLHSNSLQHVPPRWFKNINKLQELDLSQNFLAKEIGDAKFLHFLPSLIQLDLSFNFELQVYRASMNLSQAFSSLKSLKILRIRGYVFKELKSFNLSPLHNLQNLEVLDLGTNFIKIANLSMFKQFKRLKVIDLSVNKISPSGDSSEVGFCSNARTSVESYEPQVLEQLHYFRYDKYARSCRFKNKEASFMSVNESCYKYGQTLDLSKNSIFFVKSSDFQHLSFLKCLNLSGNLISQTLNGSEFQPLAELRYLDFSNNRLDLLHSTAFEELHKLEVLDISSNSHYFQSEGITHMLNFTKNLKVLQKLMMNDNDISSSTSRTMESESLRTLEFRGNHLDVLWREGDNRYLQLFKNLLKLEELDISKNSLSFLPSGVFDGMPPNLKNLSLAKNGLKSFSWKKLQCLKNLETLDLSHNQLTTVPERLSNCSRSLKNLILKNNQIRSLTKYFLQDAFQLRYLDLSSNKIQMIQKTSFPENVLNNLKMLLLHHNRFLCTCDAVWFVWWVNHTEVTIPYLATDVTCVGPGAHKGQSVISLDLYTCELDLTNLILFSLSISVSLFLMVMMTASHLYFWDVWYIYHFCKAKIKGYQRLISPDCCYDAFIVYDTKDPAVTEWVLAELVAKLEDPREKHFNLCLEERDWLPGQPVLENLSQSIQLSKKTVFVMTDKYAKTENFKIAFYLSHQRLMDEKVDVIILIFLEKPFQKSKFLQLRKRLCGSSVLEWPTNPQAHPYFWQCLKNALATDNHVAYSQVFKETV
Outline: (§1)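 EC50s come from NF-kB/AP1-driven SEAP secretion in HEK-Blue cells expressing TLR7 or TLR8, measured with Quanti-Blue after an 18 h compound incubation. Maximal response is defined by a 50 μM reference standard.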

human TLR8 = molecular target: T2, human TLR8 (Homo sapiens, UniProt Q9NR97); experiment: In vitro human TLR8 binding reporter assay (HEK-Blue, NF-kB/AP1-inducible SEAP); type: cell-based; details: HEK-Blue human TLR8 SEAP reporter cells; activity range classes; read-out: TLR8 Agonist EC50
T2 construct: host or cells: human HEK-Blue cells (HEK293-derived) co-expressing TLR8 and an NF-kB/AP1-inducible SEAP reporter
T2 sequence (Q9NR97 27-1041): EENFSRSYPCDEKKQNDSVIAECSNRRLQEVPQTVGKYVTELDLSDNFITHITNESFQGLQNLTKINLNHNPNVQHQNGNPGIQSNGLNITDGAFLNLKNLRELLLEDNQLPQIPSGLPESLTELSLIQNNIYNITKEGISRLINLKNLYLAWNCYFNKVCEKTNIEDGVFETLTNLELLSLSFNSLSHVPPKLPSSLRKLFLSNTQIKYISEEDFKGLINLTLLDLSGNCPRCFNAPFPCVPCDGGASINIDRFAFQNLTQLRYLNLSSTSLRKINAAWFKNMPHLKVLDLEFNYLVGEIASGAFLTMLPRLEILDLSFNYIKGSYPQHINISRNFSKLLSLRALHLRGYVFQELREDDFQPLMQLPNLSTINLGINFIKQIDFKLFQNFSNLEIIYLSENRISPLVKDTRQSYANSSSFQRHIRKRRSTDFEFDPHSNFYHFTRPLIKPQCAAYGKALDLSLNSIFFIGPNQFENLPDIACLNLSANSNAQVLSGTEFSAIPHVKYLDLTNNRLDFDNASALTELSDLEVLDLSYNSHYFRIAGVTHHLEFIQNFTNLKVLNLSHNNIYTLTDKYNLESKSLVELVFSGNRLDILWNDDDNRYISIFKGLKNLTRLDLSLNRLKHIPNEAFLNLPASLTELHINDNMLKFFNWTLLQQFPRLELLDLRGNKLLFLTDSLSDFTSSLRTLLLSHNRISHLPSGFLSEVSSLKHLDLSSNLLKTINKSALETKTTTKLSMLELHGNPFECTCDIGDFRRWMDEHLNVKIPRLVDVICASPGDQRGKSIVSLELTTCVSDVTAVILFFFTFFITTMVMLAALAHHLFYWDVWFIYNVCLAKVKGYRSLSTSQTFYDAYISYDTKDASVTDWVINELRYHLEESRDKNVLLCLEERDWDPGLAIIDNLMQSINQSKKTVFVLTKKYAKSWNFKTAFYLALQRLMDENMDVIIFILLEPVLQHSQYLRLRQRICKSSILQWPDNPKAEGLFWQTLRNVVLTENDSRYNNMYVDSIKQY
Outline: as §1

SMILES	IC50 [1]	EC50 (human TLR7)	EC50 (human TLR8)
Nc1cc(NCCCO)c2cc(F)c(-c3ccn[nH]3)cc2n1 [Compound 318, 3-((2-amino-6-fluoro-7-(1H-pyrazol-5-yl)quinolin-4-yl)amino)propan-1-ol]	0.07 µM	> 100 µM	> 100 µM
C[C@@H](CO)Nc1cc(N)nc2cc(-c3ccn[nH]3)ccc12 [Compound 165]	0.47 µM	> 100 µM	> 100 µM
Nc1cc(NCCc2cccnc2)c2ccc(-c3ccn[nH]3)cc2n1 [Compound 284]	0.38 µM	> 100 µM	> 100 µM
CN(C)C(=O)CCNc1cc(N)nc2cc(-c3ccn[nH]3)ccc12 [Compound 138]	5.95 µM	1 to 20 µM	> 100 µM
Nc1cc(O[C@H]2CC[C@H](O)CC2)c2ccc(-c3ccn[nH]3)cc2n1 [Compound 191]	0.63 µM	> 100 µM	> 100 µM
CC(C)(O)CNc1cc(N)nc2cc(-n3cccn3)ccc12 [Compound 176]	0.7 µM	> 100 µM	> 100 µM
Nc1cc(NCc2ccncc2)c2ccc(-c3ccn[nH]3)cc2n1 [Compound 148]	1.64 µM	> 100 µM	> 100 µM
Nc1cc(NC[C@@H]2CNCCO2)c2ccc(-c3ccn[nH]3)cc2n1 [Compound 267]	1.59 µM	> 100 µM	> 100 µM
Nc1cc(N[C@H]2CC[C@H](O)C2)c2ccc(-c3ccn[nH]3)cc2n1 [Compound 246]	0.17 µM	> 100 µM	> 100 µM
Nc1cc(NCc2cccnc2)c2ccc(-c3ccn[nH]3)cc2n1 [Compound 150]	0.22 µM	> 100 µM	> 100 µM
Nc1cc(NCCc2cccs2)c2ccc(-c3cc[nH]n3)cc2n1 [Compound 322, 7-(1H-pyrazol-3-yl)-N4-(2-(thiophen-2-yl)ethyl)quinoline-2,4-diamine]	0.61 µM	> 100 µM	> 100 µM
CN(C)c1cc(N)nc2cc(-c3ccn[nH]3)ccc12 [Compound 166]	0.56 µM	> 100 µM	> 100 µM
Nc1cc(NCCCO)c2ccc(-n3cccn3)cc2n1 [Compound 173, 3-((2-amino-7-(1H-pyrazol-1-yl)quinolin-4-yl)amino)propan-1-ol]	0.28 µM	> 100 µM	> 100 µM

Next, values leading:

IC50 [1]	EC50 (human TLR7)	EC50 (human TLR8)	SMILES
14.3 µM	> 100 µM	> 100 µM	CC(=O)NCCc1cc(N)nc2cc(-c3ccn[nH]3)ccc12 [Compound 217, N-(2-(2-amino-7-(1H-pyrazol-5-yl)quinolin-4-yl)ethyl)acetamide]
2.25 µM	> 100 µM	> 100 µM	Nc1cc(NCCCn2ccnc2)c2ccc(-c3ccn[nH]3)cc2n1 [Compound 241]
3.07 µM	> 100 µM	20 to 100 µM	Nc1nc2cc(-c3ccn[nH]3)ccc2cc1CN1CCCC1=O [Compound 119]
1.96 µM	> 100 µM	> 100 µM	Cn1ccnc1C(=O)NCCCNc1cc(N)nc2cc(-c3ccn[nH]3)ccc12 [Compound 209, N-(3-((2-amino-7-(1H-pyrazol-5-yl)quinolin-4-yl)amino)propyl)-1-methyl-1H-imidazole-2-carboxamide, 2TFA]
1.89 µM	> 100 µM	> 100 µM	CC(=O)NCCCOc1cc(N)nc2cc(-c3ccn[nH]3)ccc12 [Compound 200]
0.64 µM	> 100 µM	> 100 µM	COc1cccc(CNc2cc(N)nc3cc(-c4ccn[nH]4)ccc23)c1 [Compound 259]
1.49 µM	> 100 µM	> 100 µM	Nc1cc(NCCCc2cccnc2)c2ccc(-c3ccn[nH]3)cc2n1 [Compound 238]
4.07 µM	> 100 µM	> 100 µM	Nc1nc2cc(-c3ccn[nH]3)ccc2cc1C1CCOCC1 [Compound 116]
13.5 µM	> 100 µM	> 100 µM	Nc1cc(NCCCNC(=O)c2ccncc2)c2ccc(-c3ccn[nH]3)cc2n1 [Compound 211]
3.41 µM	> 100 µM	> 100 µM	Nc1cc(NCC2(CO)COC2)c2ccc(-c3ccsc3)cc2n1 [Compound 338, (3-(((2-amino-7-(thiophen-3-yl)quinolin-4-yl)amino)methyl)oxetan-3-yl)methanol]
0.48 µM	> 100 µM	> 100 µM	Nc1cc(N[C@@H]2CC[C@H](O)C2)c2ccc(-c3ccn[nH]3)cc2n1 [Compound 247]
0.39 µM	> 100 µM	> 100 µM	Nc1cc(NCC2COCCO2)c2ccc(-c3ccn[nH]3)cc2n1 (stereo not drawn) [Compound 266]
0.67 µM	> 100 µM	> 100 µM	Nc1cc(OCCc2ccsc2)c2ccc(-c3cc[nH]n3)cc2n1 [Compound 329, 7-(1H-pyrazol-3-yl)-4-(2-(thiophen-3-yl)ethoxy)quinolin-2-amine]
0.69 µM	> 100 µM	> 100 µM	Nc1nc2cc(-c3cc[nH]n3)ccc2cc1CCCOCc1ccccc1 [Compound 104, 3-[3-(benzyloxy)propyl]-7-(1H-pyrazol-3-yl)quinolin-2-amine]
2.56 µM	> 100 µM	> 100 µM	CCN(CCCc1cc2ccc(-c3cc[nH]n3)cc2nc1N)C(C)=O [Compound 112, N-[3-[2-amino-7-(1H-pyrazol-3-yl)quinolin-3-yl]propyl]-N-ethylacetamide]
0.29 µM	> 100 µM	> 100 µM	C[C@H](O)CNc1cc(N)nc2cc(-c3ccn[nH]3)ccc12 [Compound 134]
2.49 µM	> 100 µM	> 100 µM	Nc1cc(N[C@@H]2CCCC[C@H]2O)c2ccc(-c3ccn[nH]3)cc2n1 [Compound 162]
0.56 µM	> 100 µM	> 100 µM	Nc1cc(NCCO)c2ccc(-n3cccn3)cc2n1 [Compound 296]
9.17 µM	> 100 µM	> 100 µM	Nc1cc(OCCCC(F)(F)F)c2ccc(-c3ccsc3)cc2n1 [Compound 337]
3.02 µM	> 100 µM	> 100 µM	CN(CCO)c1cc(N)nc2cc(-c3ccn[nH]3)ccc12 [Compound 136]
